Assay results as given in patent US20240246908A1 (ORION CORPORATION, priority 2021, published 2024).
pIC50: −log10 of the molar value.

System: YAP-TEAD
Experiment: TEAD inhibition, Hippo Pathway TEAD Reporter MCF-7 luciferase assay
Assay type: cell-based
Conditions: Homo sapiens, MCF7, 24 h, Hippo Pathway TEAD Reporter MCF-7 cells, luciferase activity after 24 h; read-out: IC50 of the test compounds on YAP-TEAD inhibition (Group)
How it was run: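 MCF-7 cells carrying a TEAD-responsive firefly luciferase reporter, with nuclear YAP1 driving constitutive expression, were treated the day after plating with compounds (11 concentrations, 4 replicates; 0.1% DMSO control). After 24 h, luciferase was read by ONE-Glo luminescence and IC50 determined.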

Compound | pIC50
CNC(=O)CN1C(=O)CCC1C(=O)Nc1cc(Oc2ccc(C(F)(F)F)cc2)cc2c1OCC2 (centres unmarked) [Compound 188, 1-(2-(Methylamino)-2-oxoethyl)-5-oxo-N-(5-(4-(trifluoromethyl)phenoxy)-2,3-dihydrobenzofuran-7-yl)pyrrolidine-2-carboxamide] | 5.70 to 6.52
NC(=O)CN1C(=O)CCC1C(=O)Nc1cc(Oc2ccc(C(F)(F)F)cc2)cc2c1OCC2 (centres unmarked) [Compound 189, 1-(2-Amino-2-oxoethyl)-5-oxo-N-(5-(4-(trifluoromethyl)phenoxy)-2,3-dihydro-benzofuran-7-yl)pyrrolidine-2-carboxamide] | > 7.30
O=C1CCC(C(=O)Nc2cc(OC3CCC(F)(F)CC3)cc3c2OCC3)CN1 (centres unmarked) [Compound 190, N-(5-((4,4-Difluorocyclohexyl)oxy)-2,3-dihydrobenzofuran-7-yl)-6-oxo-piperidine-3-carboxamide] | 5.70 to 6.52
CN1C(=O)NCC1C(=O)Nc1cc(Oc2ccc(C(F)(F)F)cc2)cc2c1OCCO2 (centres unmarked) [Compound 192, 3-Methyl-2-oxo-N-(7-(4-(trifluoromethyl)phenoxy)-2,3-dihydrobenzo[b][1,4]-dioxin-5-yl)imidazolidine-4-carboxamide] | > 7.30
CN1C(=O)NCC1C(=O)Nc1cc(Oc2ccc(C(F)(F)F)cn2)cc2cn[nH]c12 (centres unmarked) [Compound 193, 3-Methyl-2-oxo-N-(5-((5-(trifluoromethyl)pyridin-2-yl)oxy)-1H-indazol-7-yl)-imidazolidine-4-carboxamide] | 5.70 to 6.52
CN1C(=O)NC[C@@H]1C(=O)Nc1cc(Oc2ccc(C(F)(F)F)cn2)ccc1F [Compound 196, (R)—N-(2-Fluoro-5-((5-(trifluoromethyl)pyridin-2-yl)oxy)phenyl)-3-methyl-2-oxoimidazolidine-4-carboxamide] | > 7.30
CN1C(=O)OCC1C(=O)Nc1cc(Oc2ccc(C(F)(F)F)cn2)ccc1F (centres unmarked) [Compound 197, N-(2-Fluoro-5-((5-(trifluoromethyl)pyridin-2-yl)oxy)phenyl)-3-methyl-2-oxooxazolidine-4-carboxamide] | 6.52 to 7.30
CN1C(=O)OC[C@H]1C(=O)Nc1cc(Oc2ccc(C(F)(F)F)cn2)ccc1F [Compound 199, (S)—N-(2-Fluoro-5-((5-(trifluoromethyl)pyridin-2-yl)oxy)phenyl)-3-methyl-2-oxooxazolidine-4-carboxamide] | 5.70 to 6.52
COc1ccc(Oc2ccc(F)cn2)cc1NC(=O)C1CCC(=O)N1C (centres unmarked) [Compound 202, N-(5-((5-Fluoropyridin-2-yl)oxy)-2-methoxyphenyl)-1-methyl-5-oxopyrrolidine-2-carboxamide] | 5.70 to 6.52
COc1ccc(Oc2ccc(Cl)cn2)cc1NC(=O)C1CCC(=O)N1C (centres unmarked) [Compound 203, N-(5-((5-Chloropyridin-2-yl)oxy)-2-methoxyphenyl)-1-methyl-5-oxo-pyrrolidine-2-carboxamide] | 5.70 to 6.52
COc1ccc(OCC2CCC(F)(F)CC2)cc1NC(=O)C1CCC(=O)N1C (centres unmarked) [Compound 206, N-(5-((4,4-Difluorocyclohexyl)methoxy)-2-methoxyphenyl)-1-methyl-5-oxopyrrolidine-2-carboxamide] | > 7.30
CN1C(=O)CC[C@@H]1C(=O)Nc1cc(Oc2ccc(C(F)F)cc2)cc2c1OCC2 [Compound 215, (R)—N-(5-(4-(Difluoromethyl)phenoxy)-2,3-dihydrobenzofuran-7-yl)-1-methyl-5-oxopyrrolidine-2-carboxamide] | > 7.30
COc1ccc(Oc2ccc(F)c(Cl)c2)cc1NC(=O)C1CCC(=O)N1C (centres unmarked) [Compound 223, N-(5-(3-Chloro-4-fluorophenoxy)-2-methoxyphenyl)-1-methyl-5-oxo-pyrrolidine-2-carboxamide] | > 7.30
CN1C(=O)CCC1C(=O)Nc1cc(Oc2ccc(F)c(F)c2)ccc1-c1nnco1 (centres unmarked) [Compound 224, N-(5-(3,4-Difluorophenoxy)-2-(1,3,4-oxadiazol-2-yl)phenyl)-1-methyl-5-oxopyrrolidine-2-carboxamide] | 5.70 to 6.52
COc1ccc(Oc2ccc(C(F)(F)F)cc2)cc1NC(=O)[C@@H]1CN(C)C(=O)N1C [Compound 226, (S)—N-(2-Methoxy-5-(4-(trifluoromethyl)phenoxy)phenyl)-1,3-dimethyl-2-oxoimidazolidine-4-carboxamide] | > 7.30

Second part, the compound after the results:

pIC50 | Compound
5.70 to 6.52 | O=C1CCC(C(=O)Nc2cc(OC3CCC(F)(F)CC3)cc3c2OCCO3)CN1 (centres unmarked) [Compound 191, N-(7-((4,4-Difluorocyclohexyl)oxy)-2,3-dihydrobenzo[b][1,4]dioxin-5-yl)-6-oxopiperidine-3-carboxamide]
6.52 to 7.30 | CN1C(=O)OC[C@@H]1C(=O)Nc1cc(Oc2ccc(C(F)(F)F)cn2)ccc1F [Compound 198, (R)—N-(2-Fluoro-5-((5-(trifluoromethyl)pyridin-2-yl)oxy)phenyl)-3-methyl-2-oxooxazolidine-4-carboxamide]
6.52 to 7.30 | COc1ccc(Oc2cc(C(F)(F)F)ccn2)cc1NC(=O)C1CNC(=O)N1C (centres unmarked) [Compound 200, N-(2-Methoxy-5-((4-(trifluoromethyl)pyridin-2-yl)oxy)phenyl)-3-methyl-2-oxoimidazolidine-4-carboxamide]
5.70 to 6.52 | COc1ccc(Oc2cc(C(F)(F)F)ccn2)cc1NC(=O)C1CCC(=O)N1C (centres unmarked) [Compound 201, N-(2-Methoxy-5-((4-(trifluoromethyl)pyridin-2-yl)oxy)phenyl)-1-methyl-5-oxopyrrolidine-2-carboxamide]
5.70 to 6.52 | COc1ccc(COC2CCC(F)(F)CC2)cc1NC(=O)C1CCC(=O)N1C (centres unmarked) [Compound 205, N-(5-(((4,4-Difluorocyclohexyl)oxy)methyl)-2-methoxyphenyl)-1-methyl-5-oxopyrrolidine-2-carboxamide]
6.52 to 7.30 | COc1ccc(OC2CCCC(F)(F)CC2)cc1NC(=O)[C@@H]1CCC(=O)N1C (stereo partly drawn) [Compound 207, (2S)—N-(5-((4,4-Difluorocycloheptyl)oxy)-2-methoxyphenyl)-1-methyl-5-oxopyrrolidine-2-carboxamide]
> 7.30 | COc1ccc(OC2CCC(C(F)(F)F)CC2)cc1NC(=O)[C@H]1COC(=O)N1C (stereo partly drawn) [Compound 208, (R)—N-(2-Methoxy-5-((4-(trifluoromethyl)cyclohexyl)oxy)phenyl)-3-methyl-2-oxooxazolidine-4-carboxamide]
> 7.30 | COc1ccc(O[C@H]2CC[C@@H](C(F)(F)F)CC2)cc1NC(=O)[C@H]1CCC(=O)N1C [Compound 209, (R)—N-(2-Methoxy-5-(((cis)-4-(trifluoromethyl)cyclohexyl)oxy)phenyl)-1-methyl-5-oxopyrrolidine-2-carboxamide]
> 7.30 | COc1ccc(O[C@H]2CC[C@@H](C(F)(F)F)CC2)cc1NC(=O)[C@@H]1CCC(=O)N1C [Compound 210, (S)—N-(2-Methoxy-5-(((cis)-4-(trifluoromethyl)cyclohexyl)oxy)phenyl)-1-methyl-5-oxopyrrolidine-2-carboxamide]
6.52 to 7.30 | COc1ccc(Oc2ccc(C(F)F)cn2)cc1NC(=O)C1CCC(=O)N1C (centres unmarked) [Compound 211, N-(5-((5-(Difluoromethyl)pyridin-2-yl)oxy)-2-methoxyphenyl)-1-methyl-5-oxopyrrolidine-2-carboxamide]
6.52 to 7.30 | COc1ccc(Oc2ccc(C(F)F)cn2)cc1NC(=O)C1CNC(=O)N1C (centres unmarked) [Compound 212, N-(5-((5-(Difluoromethyl)pyridin-2-yl)oxy)-2-methoxyphenyl)-3-methyl-2-oxoimidazolidine-4-carboxamide]
> 7.30 | CN1C(=O)NCC1C(=O)Nc1cc(Oc2ccc(C(F)F)cc2)cc2c1OCC2 (centres unmarked) [Compound 213, N-(5-(4-(Difluoromethyl)phenoxy)-2,3-dihydrobenzofuran-7-yl)-3-methyl-2-oxoimidazolidine-4-carboxamide]
> 7.30 | CN1C(=O)CC[C@H]1C(=O)Nc1cc(Oc2ccc(C(F)F)cc2)cc2c1OCC2 [Compound 214, (S)—N-(5-(4-(Difluoromethyl)phenoxy)-2,3-dihydrobenzofuran-7-yl)-1-methyl-5-oxopyrrolidine-2-carboxamide]
> 7.30 | CN1C(=O)NC[C@H]1C(=O)Nc1cc(Oc2ccc(C(F)(F)F)cn2)cc2ccoc12 [Compound 216, (S)-3-Methyl-2-oxo-N-(5-((5-(trifluoromethyl)pyridin-2-yl)oxy)benzofuran-7-yl)imidazolidine-4-carboxamide]
> 7.30 | CN1C(=O)NC[C@@H]1C(=O)Nc1cc(Oc2ccc(C(F)(F)F)cn2)cc2ccoc12 [Compound 217, (R)-3-Methyl-2-oxo-N-(5-((5-(trifluoromethyl)pyridin-2-yl)oxy)benzofuran-7-yl)imidazoledine-4-carboxamide]
6.52 to 7.30 | CN1C(=O)NC[C@H]1C(=O)Nc1cc(Oc2ccc(C(F)(F)F)cn2)cc2c1ncn2C [Compound 218, (S)-3-Methyl-N-(1-methyl-6-((5-(trifluoromethyl)pyridin-2-yl)oxy)-1H-benzo-[d]imidazol-4-yl)-2-oxoimidazolidine-4-carboxamide]
> 7.30 | COc1ccc(Oc2ccc(Cl)c(Cl)c2)cc1NC(=O)C1CCC(=O)N1C (centres unmarked) [Compound 222, N-(5-(3,4-Dichlorophenoxy)-2-methoxyphenyl)-1-methyl-5-oxopyrrolidine-2-carboxamide]
5.70 to 6.52 | CN1C(=O)CCC1C(=O)Nc1cc(Oc2ccc(C(F)(F)F)cc2)cc2cn[nH]c12 (centres unmarked) [Compound 225, 1-Methyl-5-oxo-N-(5-(4-(trifluoromethyl)phenoxy)-1H-indazol-7-yl)-pyrrolidine-2-carboxamide]
> 7.30 | COc1ccc(Oc2ccc(C(F)(F)F)cc2)cc1NC(=O)[C@H]1CN(C)C(=O)N1C [Compound 227, (R)—N-(2-Methoxy-5-(4-(trifluoromethyl)phenoxy)phenyl)-1,3-dimethyl-2-oxoimidazolidine-4-carboxamide]
5.70 to 6.52 | COc1ccc(Oc2ccc(C(F)(F)F)cc2)cc1NC(=O)C1CN(C)C(=O)C1O (centres unmarked) [Compound 228, 4-Hydroxy-N-(2-methoxy-5-(4-(trifluoromethyl)phenoxy)phenyl)-1-methyl-5-oxopyrrolidine-3-carboxamide]
